US10479795B2 (Incyte Corporation, priority 2016, dated 2019)
Where a name gives a salt, the structure may show the parent alone. Read-outs that look alike come from different tables or passages of the source.

Experiments:
[1] = test system: Phosphorylated Ribosomal Protein S6 (RPS6); experiment: THP-1 RPS6 ELISA Assay; format: cell-based, Human; settings: THP-1 cells, read-out: PI3Kγ_THP1_RPS6_ELISA IC50
Summary of the method: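 IC50 values come from a curve of percent inhibition against log compound concentration, using phospho-RPS6 ELISA (450 nm) on THP-1 lysates. Cells were serum-starved overnight, exposed to compound for 2 h at 37 °C, then challenged 15 min with 10 nM MCP-1.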

[2] = target: PI3Kγ (p110γ) Recombinant Human Protein (Homo sapiens (Human), UniProt P48736); experiment: PI3K-γ Scintillation Proximity Assay; format: biochemical; settings: read-out: PI3Kγ IC50
Summary of the method: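 Radiometric SPA readout: […] bound to WGA beads after overnight shaking, IC50 derived from % activity of DMSO control. Reaction used human p110γ, 2 μM ATP, 20 μM PIP2, pH 6.7 MOPS buffer with MgCl2, DTT, CHAPS, 2% DMSO, room temperature.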

[3] = target: PI3Kδ (p110δ/p85α) Recombinant Human Protein (Homo sapiens (Human), UniProt O00329); experiment: PI3Kδ Scintillation Proximity Assay; format: biochemical
Summary of the method: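 Assay conditions: 2 μM ATP (radiolabelled), 20 μM PIP2, 3.4 nM PI3Kδ, 20 mM MOPS pH 6.7 with 10 mM MgCl2, 5 mM DTT, 0.03% CHAPS, 2 h at room temperature. Signal from bead-captured 33P product; IC50 versus solvent control.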

Sequence of PI3Kδ (p110δ/p85α) Recombinant Human Protein (O00329 whole entry): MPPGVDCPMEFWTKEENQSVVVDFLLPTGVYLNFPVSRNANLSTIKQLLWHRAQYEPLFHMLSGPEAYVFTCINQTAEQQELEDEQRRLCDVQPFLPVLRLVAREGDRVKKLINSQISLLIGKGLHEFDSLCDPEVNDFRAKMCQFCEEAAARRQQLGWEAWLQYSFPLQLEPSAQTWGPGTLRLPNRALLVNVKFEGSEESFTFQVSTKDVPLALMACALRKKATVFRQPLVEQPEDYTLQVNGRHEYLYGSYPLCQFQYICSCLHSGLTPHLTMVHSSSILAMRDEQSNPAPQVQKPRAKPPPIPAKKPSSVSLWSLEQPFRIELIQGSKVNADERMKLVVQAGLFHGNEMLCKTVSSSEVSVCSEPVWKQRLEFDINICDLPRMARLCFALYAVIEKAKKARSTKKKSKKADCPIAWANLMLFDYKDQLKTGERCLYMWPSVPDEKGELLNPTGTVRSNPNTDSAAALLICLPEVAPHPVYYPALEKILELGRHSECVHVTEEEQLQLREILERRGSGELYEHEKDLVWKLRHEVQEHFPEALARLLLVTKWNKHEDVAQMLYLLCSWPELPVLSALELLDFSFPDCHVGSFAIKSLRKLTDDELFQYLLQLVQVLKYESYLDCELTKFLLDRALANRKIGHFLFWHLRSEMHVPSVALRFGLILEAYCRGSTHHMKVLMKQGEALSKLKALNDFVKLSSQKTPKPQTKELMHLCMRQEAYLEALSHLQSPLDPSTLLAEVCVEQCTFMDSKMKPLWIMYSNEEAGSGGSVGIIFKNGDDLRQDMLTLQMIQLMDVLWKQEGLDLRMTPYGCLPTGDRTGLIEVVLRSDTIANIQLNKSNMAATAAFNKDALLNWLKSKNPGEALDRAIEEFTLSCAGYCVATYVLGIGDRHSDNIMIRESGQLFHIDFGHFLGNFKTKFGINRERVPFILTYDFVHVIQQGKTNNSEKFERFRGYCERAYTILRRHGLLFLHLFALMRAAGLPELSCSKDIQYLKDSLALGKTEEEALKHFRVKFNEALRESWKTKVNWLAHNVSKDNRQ
Sequence of PI3Kδ (p110δ/p85α) Recombinant Human Protein (P27986 whole entry partner): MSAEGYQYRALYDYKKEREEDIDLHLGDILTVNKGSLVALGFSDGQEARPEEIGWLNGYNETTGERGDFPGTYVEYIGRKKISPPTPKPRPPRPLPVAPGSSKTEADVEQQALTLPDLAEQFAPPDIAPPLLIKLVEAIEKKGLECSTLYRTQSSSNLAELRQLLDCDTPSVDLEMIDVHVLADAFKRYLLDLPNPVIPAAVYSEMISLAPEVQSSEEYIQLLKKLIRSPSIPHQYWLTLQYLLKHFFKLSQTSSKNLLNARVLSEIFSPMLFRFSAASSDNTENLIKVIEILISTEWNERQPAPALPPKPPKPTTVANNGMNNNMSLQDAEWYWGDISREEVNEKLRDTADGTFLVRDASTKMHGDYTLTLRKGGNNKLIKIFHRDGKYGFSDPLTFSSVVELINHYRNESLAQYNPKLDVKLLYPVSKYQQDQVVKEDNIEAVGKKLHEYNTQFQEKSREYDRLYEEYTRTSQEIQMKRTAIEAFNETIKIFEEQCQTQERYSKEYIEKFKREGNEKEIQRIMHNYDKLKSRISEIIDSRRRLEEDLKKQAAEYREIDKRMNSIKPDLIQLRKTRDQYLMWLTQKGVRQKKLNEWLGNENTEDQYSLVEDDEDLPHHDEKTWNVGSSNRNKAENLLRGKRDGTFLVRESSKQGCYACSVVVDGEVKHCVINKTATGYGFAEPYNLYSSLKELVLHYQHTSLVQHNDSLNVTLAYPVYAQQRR
Sequence of PI3Kγ (p110γ) Recombinant Human Protein (P48736 whole entry): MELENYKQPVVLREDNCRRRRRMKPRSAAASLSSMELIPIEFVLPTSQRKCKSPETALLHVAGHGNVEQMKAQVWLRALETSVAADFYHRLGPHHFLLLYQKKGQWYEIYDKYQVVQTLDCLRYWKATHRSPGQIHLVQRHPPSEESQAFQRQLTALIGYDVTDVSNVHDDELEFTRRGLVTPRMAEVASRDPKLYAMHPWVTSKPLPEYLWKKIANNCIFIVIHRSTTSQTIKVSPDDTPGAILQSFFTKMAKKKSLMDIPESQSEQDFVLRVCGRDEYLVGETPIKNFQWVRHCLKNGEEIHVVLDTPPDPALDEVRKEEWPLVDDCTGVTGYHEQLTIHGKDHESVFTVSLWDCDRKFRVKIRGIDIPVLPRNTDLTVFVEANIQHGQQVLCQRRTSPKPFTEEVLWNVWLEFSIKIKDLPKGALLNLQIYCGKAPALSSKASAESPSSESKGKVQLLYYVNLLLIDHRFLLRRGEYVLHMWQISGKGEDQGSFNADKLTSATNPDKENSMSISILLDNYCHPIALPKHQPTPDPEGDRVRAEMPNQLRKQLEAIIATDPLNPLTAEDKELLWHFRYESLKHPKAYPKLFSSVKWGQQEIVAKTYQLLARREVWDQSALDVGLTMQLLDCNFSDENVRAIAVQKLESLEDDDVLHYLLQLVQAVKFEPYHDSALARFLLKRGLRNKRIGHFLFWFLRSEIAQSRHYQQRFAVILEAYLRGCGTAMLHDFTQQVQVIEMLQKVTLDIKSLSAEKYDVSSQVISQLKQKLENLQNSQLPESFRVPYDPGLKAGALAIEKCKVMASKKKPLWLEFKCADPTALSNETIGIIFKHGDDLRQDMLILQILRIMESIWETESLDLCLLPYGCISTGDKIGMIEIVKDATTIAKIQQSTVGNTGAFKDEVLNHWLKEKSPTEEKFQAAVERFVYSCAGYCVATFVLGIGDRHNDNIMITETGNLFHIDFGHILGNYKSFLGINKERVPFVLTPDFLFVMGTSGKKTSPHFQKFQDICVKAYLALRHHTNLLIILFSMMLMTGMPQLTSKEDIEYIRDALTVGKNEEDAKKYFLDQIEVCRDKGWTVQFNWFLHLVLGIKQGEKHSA

| SMILES | IC50 [1] [µM] | IC50 [2] [µM] | IC50 [3] [µM] | IC50 ([1]; Homo sapiens) [µM] |
| --- | --- | --- | --- | --- |
| Cc1ccc(S(=O)(=O)NC23CC(F)(C2)C3)cc1-c1cnc2c(N)ncnn12 [Example 98, 3-(4-Aminoimidazo[1,2-f][1,2,4]triazin-7-yl)-N-(3-fluorobicyclo[1.1.1]pentan-1-yl)-4-methylbenzenesulfonamide trifluoroacetate salt] | 0.1 to 0.5 | < 0.1 | 0.5 to 2 |  |
| Cc1ccc(S(=O)(=O)NC23CC(c4nnn[nH]4)(C2)C3)cc1-c1cnc2c(N)ncnn12 [Example 99, N-(3-(1H-tetrazol-5-yl)bicyclo[1.1.1]pentan-1-yl)-3-(4-aminoimidazo[1,2-f][1,2,4]triazin-7-yl)-4-methylbenzenesulfonamide trifluoroacetate salt] | > 1 | < 0.1 | 0.5 to 2 |  |
| Cc1ccc(S(=O)(=O)NC2CCOC2C)cc1-c1cnc2c(N)ncnn12 (stereo not drawn) [Example 100, 3-(4-Aminoimidazo[1,2-f][1,2,4]triazin-7-yl)-4-methyl-N-(2-methyltetrahydrofuran-3-yl)benzenesulfonamide trifluoroacetate salt] | 0.5 to 1 | < 0.1 | 0.5 to 2 |  |
| Cc1ccc(S(=O)(=O)NCC2(C#N)CC2)cc1-c1cnc2c(N)ncnn12 [Example 101, 3-(4-Aminoimidazo[1,2-f][1,2,4]triazin-7-yl)-N-((1-cyanocyclopropyl)methyl)-4-methylbenzenesulfonamide trifluoroacetate salt] | > 1 | < 0.1 | 0.5 to 2 |  |
| Cc1ccc(S(=O)(=O)NCC2(C#N)CCC2)cc1-c1cnc2c(N)ncnn12 [Example 102, 3-(4-Aminoimidazo[1,2-f][1,2,4]triazin-7-yl)-N-((1-cyanocyclobutyl)methyl)-4-methylbenzenesulfonamide trifluoroacetate salt] | 0.1 to 0.5 | < 0.1 | 0.1 to 0.5 |  |
| CC(=O)N1CC(NS(=O)(=O)c2ccc(C)c(-c3cnc4c(N)ncnn34)c2)C1 [Example 103, N-(1-Acetylazetidin-3-yl)-3-(4-aminoimidazo[1,2-f][1,2,4]triazin-7-yl)-4-methylbenzenesulfonamide trifluoroacetate salt] | > 1 | < 0.1 | 0.5 to 2 |  |
| Cc1ccc(S(=O)(=O)NC2COC2)cc1-c1cnc2c(N)ncnn12 [Example 104, 3-(4-Aminoimidazo[1,2-f][1,2,4]triazin-7-yl)-4-methyl-N-(oxetan-3-yl)benzenesulfonamide] | 0.5 to 1 | < 0.1 | 0.5 to 2 |  |
| Cc1ccc(S(=O)(=O)NC23CC(C2)C3)cc1-c1cnc2c(N)ncnn12 [Example 106, 3-(4-Aminoimidazo[1,2-f][1,2,4]triazin-7-yl)-N-(bicyclo[1.1.1]pentan-1-yl)-4-methylbenzenesulfonamide trifluoroacetate salt] | > 1 | < 0.1 | 0.5 to 2 |  |
| Cc1ccc(S(=O)(=O)NC23CCC(CO)(C2)C3)cc1-c1cnc2c(N)ncnn12 [Example 107, 3-(4-Aminoimidazo[1,2-f][1,2,4]triazin-7-yl)-N-(4-(hydroxymethyl)bicyclo[2.1.1]hexan-1-yl)-4-methylbenzenesulfonamide trifluoroacetate salt] | 0.5 to 1 | < 0.1 | 0.1 to 0.5 |  |
| Cc1ccc(S(=O)(=O)NC23CCC(CC#N)(C2)C3)cc1-c1cnc2c(N)ncnn12 [Example 108, 3-(4-Aminoimidazo[1,2-f][1,2,4]triazin-7-yl)-N-(4-(cyanomethyl)bicyclo[2.1.1]hexan-1-yl)-4-methylbenzenesulfonamide trifluoroacetate salt] | 0.1 to 0.5 | < 0.1 | 0.1 to 0.5 |  |
| Cc1ccc(S(=O)(=O)NC23CCC(C(=O)O)(C2)C3)cc1-c1cnc2c(N)ncnn12 [Example 109, 4-(3-(4-Aminoimidazo[1,2-f][1,2,4]triazin-7-yl)-4-methylphenylsulfonamido)bicyclo[2.1.1]hexane-1-carboxylic acid] | > 1 | < 0.1 | 0.5 to 2 |  |
| Cc1ccc(S(=O)(=O)NC23CCC(C(N)=O)(C2)C3)cc1-c1cnc2c(N)ncnn12 [Example 110, 4-(3-(4-Aminoimidazo[1,2-f][1,2,4]triazin-7-yl)-4-methylphenylsulfonamido)bicyclo[2.1.1]hexane-1-carboxamide trifluoroacetate salt] | > 1 | < 0.1 | 0.1 to 0.5 |  |
| Cc1ccc(S(=O)(=O)NC23CC(c4cnco4)(C2)C3)cc1-c1cnc2c(N)ncnn12 [Example 111, 3-(4-Aminoimidazo[1,2-f][1,2,4]triazin-7-yl)-4-methyl-N-(3-(oxazol-5-yl)bicyclo[1.1.1]pentan-1-yl)benzenesulfonamide trifluoroacetate salt] | 0.1 to 0.5 | < 0.1 | 0.1 to 0.5 |  |
| Cc1ccc(S(=O)(=O)NC23CC(Cn4ccnc4)(C2)C3)cc1-c1cnc2c(N)ncnn12 [Example 112, N-(3-((1H-Imidazol-1-yl)methyl)bicyclo[1.1.1]pentan-1-yl)-3-(4-aminoimidazo[1,2-f][1,2,4]triazin-7-yl)-4-methylbenzenesulfonamide trifluoroacetate salt] | 0.1 to 0.5 | < 0.1 | 0.1 to 0.5 |  |
| Cc1ccc(S(=O)(=O)NC23CC(Cn4cncn4)(C2)C3)cc1-c1cnc2c(N)ncnn12 [Example 113, N-(3-((1H-1,2,4-triazol-1-yl)methyl)bicyclo[1.1.]pentan-1-yl)-3-(4-aminoimidazo[1,2-f][1,2,4]triazin-7-yl)-4-methylbenzenesulfonamide trifluoroacetate salt] | 0.1 to 0.5 | < 0.1 | 0.5 to 2 |  |
| Cc1ccc(S(=O)(=O)NC23CC(c4nccs4)(C2)C3)cc1-c1cnc2c(N)ncnn12 [Example 114, 3-(4-Aminoimidazo[1,2-f][1,2,4]triazin-7-yl)-4-methyl-N-(3-(thiazol-2-yl)bicyclo[1.1.1]pentan-1-yl)benzenesulfonamide trifluoroacetate salt] | 0.1 to 0.5 | < 0.1 | 0.1 to 0.5 |  |
| COC(=O)NC12CC(NS(=O)(=O)c3ccc(C)c(-c4cnc5c(N)ncnn45)c3)(C1)C2 [Example 115, Methyl 3-(3-(4-aminoimidazo[1,2-f][1,2,4]triazin-7-yl)-4-methylphenylsulfonamido)bicyclo[1.1.1]pentan-1-ylcarbamate trifluoroacetate salt] | 0.1 to 0.5 | < 0.1 | 0.5 to 2 |  |
| Cc1ccc(S(=O)(=O)NC23CC(N4CCOCC4)(C2)C3)cc1-c1cnc2c(N)ncnn12 [Example 116, 3-(4-Aminoimidazo[1,2-f][1,2,4]triazin-7-yl)-4-methyl-N-(3-morpholinobicyclo[1.1.1]pentan-1-yl)benzenesulfonamide trifluoroacetate salt] | 0.1 to 0.5 | < 0.1 | 0.5 to 2 |  |
| Cc1ccc(S(=O)(=O)NC23CC(C)(C2)C3)cc1-c1cnc2c(N)ncnn12 [Example 117, 3-(4-Aminoimidazo[1,2-f][1,2,4]triazin-7-yl)-4-methyl-N-(3-methylbicyclo[1.1.1]pentan-1-yl)benzenesulfonamide] | 0.1 to 0.5 | < 0.1 | 0.5 to 2 |  |
| Cc1ccc(S(=O)(=O)N(C)C23CC(N)(C2)C3)cc1-c1cnc2c(N)ncnn12 [Example 118, N-(3-aminobicyclo[1.1.1]pentan-1-yl)-3-(4-aminoimidazo[1,2-f][1,2,4]triazin-7-yl)-N,4-dimethylbenzenesulfonamide trifluoroacetate salt] | > 1 | < 0.1 | 0.1 to 0.5 |  |
| Cc1ccc(S(=O)(=O)NCC2(CO)CCOCC2)cc1-c1cnc2c(N)ncnn12 [Example 121, 3-(4-aminoimidazo[2,1-f][1,2,4]triazin-7-yl)-N-{[4-(hydroxymethyl)tetrahydro-2H-pyran-4-yl]methyl}-4-methylbenzenesulfonamide] |  | 0.1 to 0.5 | > 2 | > 1 |
| Cc1ccc(S(=O)(=O)NC2CCC(F)(F)CC2)cc1-c1cnc2c(N)ncnn12 [Example 122, 3-(4-aminoimidazo[2,1-f][1,2,4]triazin-7-yl)-N-(4,4-difluorocyclohexyl)-4-methylbenzenesulfonamide] |  | < 0.1 | 0.5 to 2 | 0.1 to 0.5 |
| Cc1ccc(S(=O)(=O)N[C@H]2COC[C@@H]2O)cc1-c1cnc2c(N)ncnn12 [Example 123, 3-(4-aminoimidazo[2,1-f][1,2,4]triazin-7-yl)-N-[(3S,4R)-4-hydroxytetrahydrofuran-3-yl]-4-methylbenzenesulfonamide] |  | < 0.1 | 0.5 to 2 | 0.5 to 1 |
| Cc1ccc(S(=O)(=O)N[C@H]2CC[C@](O)(C(F)(F)F)CC2)cc1-c1cnc2c(N)ncnn12 [Example 124, 3-(4-aminoimidazo[2,1-f][1,2,4]triazin-7-yl)-N-[cis-4-hydroxy-4-(trifluoromethyl)cyclohexyl]-4-methylbenzenesulfonamide] | 0.1 to 0.5 | < 0.1 | 0.1 to 0.5 |  |
